Assay results taken from PMC7503225, “Repositioning Dequalinium as Potent Muscarinic Allosteric Ligand by Combining Virtual Screening Campaigns and Experimental Binding Assays” (International Journal of Molecular Sciences, 2020).

Tests used:
[1] = target: T1, [3H]-NMS-occupied muscarinic hM5 subtype (Homo sapiens, UniProt P08912); experiment: One point kinetic (off-rate) assay of [3H]-NMS dissociation; type: binding; details: read-out: log Kocc hM5 (converted)
T1 construct: expressed in transfected cells; host or cells: CHO cells, stably transfected; membrane fractions
T1 sequence (P08912 1-532): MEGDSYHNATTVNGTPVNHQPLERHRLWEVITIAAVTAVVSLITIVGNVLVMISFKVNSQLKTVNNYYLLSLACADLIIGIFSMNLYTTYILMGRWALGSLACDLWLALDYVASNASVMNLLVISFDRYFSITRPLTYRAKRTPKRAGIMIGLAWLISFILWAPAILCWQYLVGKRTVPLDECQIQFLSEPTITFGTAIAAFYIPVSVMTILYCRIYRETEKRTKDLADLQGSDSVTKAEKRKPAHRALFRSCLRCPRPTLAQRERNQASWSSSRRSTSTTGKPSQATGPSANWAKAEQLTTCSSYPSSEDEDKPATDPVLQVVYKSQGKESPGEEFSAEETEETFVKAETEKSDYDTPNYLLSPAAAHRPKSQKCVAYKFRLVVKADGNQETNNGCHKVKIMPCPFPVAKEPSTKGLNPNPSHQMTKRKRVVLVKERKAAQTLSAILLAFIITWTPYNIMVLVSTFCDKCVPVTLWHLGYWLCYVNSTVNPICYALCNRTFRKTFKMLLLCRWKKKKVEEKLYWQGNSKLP
Procedure: All tested compounds were purchased from Merck KGaA (Darmstadt, Germany). The radioligand binding experiments were performed with membranes from Chinese Hamster Ovary (CHO) cells stably transfected with the five cloned human muscarinic receptor subtypes (hM1-5). Membrane fractions were prepared according to the protocol, which have been previously described; membranes were stored at −80 °C until use. Nonspecific binding was defined by the radioactivity bound in the presence of 10 µM atropine.
Off-rate assays were performed as described elsewhere to estimate the affinity of the ligands for the [^3H]-NMS-occupied receptor (log Kocc). Briefly, a high concentration of membranes (about 0.1 mg/mL) was incubated with a high concentration of [^3H]-NMS (2 nM) for 60 min at room temperature (mix membrane). Next, 100 µL aliquots were distributed into polypropylene tubes that were empty or in a final volume of 1 mL binding buffer with 1 µM atropine alone and in the presence of a range of concentrations of tested compound (1 nM–0.1 mM).
The effect on the radioligand dissociation of each tested ligand was determined at 0 min and at one time point, which was chosen to be ca 2.5 dissociation half-lives of [^3H]-NMS alone from each subtype receptors. Later (80 min for hM1, 20 min for hM2 and 70 min for hM5), the samples were filtered and counted as previously reported. Non specific binding was measured as previously reported.
Data from one-point kinetic experiments were analyzed in order to obtain estimates of the affinity of an allosteric ligand for the [^3H]-NMS occupied receptor (log Kocc) in a single step, using an equation introduced in GraphPad Prism 5.02 [33, 34].
All the results are expressed as means ± SEM obtained from 3-4 independent experiments each one performed in duplicate.

[2] = ref DrugBank [16]; cited from earlier work

Cc1cc(N)c2ccccc2[n+]1CCCCCCCCCC[n+]1c(C)cc(N)c2ccccc21 [dequalinium]
Kd [1]: 3.31 µM
logP [2]: 0.2
